Assay [1] deals with Nmb-induced mechanical hypersensitivity in mice. Briefly: Nmb-induced mechanical hypersensitivity, effect of pretreatment (Figure 7C). The format is in vivo, mouse. As to conditions: intra-TG TTA-P2 1 nmol prior to 1 nmol Nmb; 1 h; n = 8 - 10. As to the method:
Mice were housed on a 12 h light/dark cycle, maintained in a humidity- and temperature-controlled room with water available ad libitum and were acclimated to the experimenter for 2 d before the first behavioural observations. Experimenters were blinded to the treatment or genotypes of the mice. As described previously, [31], an Orofacial Stimulation Test (Ugo Basile, Italy) was used for the measurement of hypersensitivity to the mechanical stimulation of the trigeminal area. Briefly, the mice initially underwent one week of adaptation trainings after a 12 h fasting food period. Each mouse was then placed in a cage in which there was an Orofacial Stimulation Test system. […] The contact number and total duration of time the mouse spent acquiring the reward were analyzed with the ORO software.
For experiments that several time points are needed to be checked in 24 h, von Frey test was used, as orofacial stimulation test can be checked only once a day, [32]. […] Mechanical hypersensitivity was assessed as described in previous studies, [33]. In brief, the threshold was assessed with a set of von Frey hairs (0.02-2.56 g, Stoelting) applied to the whisker pad in an ascending series of trials, with three separate von Frey stimulations applied per series. The threshold was determined when mice moved their heads away briskly and strongly from at least one of the three stimuli. […]

Assay [2] concerns the target Human neuromedin B receptor expressed in HEK293 cells (human) (UniProt P28336).
The test system of assay [3] is CFA-induced mechanical allodynia in mice. Description: CFA-induced inflammatory pain, mechanical allodynia. The format is in vivo, mouse. As to conditions: rofecoxib 10 mg/kg (legend: 1 mg/kg, subcutaneous); 1 h; 2 d after CFA; n = 7 - 9. As to the method: For experiments that several time points are needed to be checked in 24 h, von Frey test was used, as orofacial stimulation test can be checked only once a day, [32]. For the von Frey test, the mice were placed in metal mesh boxes and allowed 30 min for habituation before examination. Mechanical hypersensitivity was assessed as described in previous studies, [33]. In brief, the threshold was assessed with a set of von Frey hairs (0.02-2.56 g, Stoelting) applied to the whisker pad in an ascending series of trials, with three separate von Frey stimulations applied per series. The threshold was determined when mice moved their heads away briskly and strongly from at least one of the three stimuli. Dixon's up-down method was used to determine the 50% probability of escape threshold. For thermal test, a heat stimulus was applied to the maxillary whisker pad skin by radiant heat (IITC Life Science). Heat sensitivity was expressed as head-withdrawal latency (HWL). The radiant heat intensity was adjusted so that basal HWL is between 10-15 s, with a cut-off of 18 s to prevent tissue damage. Chronic inflammatory pain was induced by subcutaneous injection of 20 μL of complete Freund's adjuvant (CFA) into the left side of the buccal pad. […]

Entries after “also recorded” stand apart in the source; their conditions may differ.

The values that follow come from PMC8490515, “Neuromedin B receptor stimulation of Cav3.2 T-type Ca^2+ channels in primary sensory neurons mediates peripheral pain hypersensitivity” (Theranostics, 2021).

Sequence of Human neuromedin B receptor expressed in HEK293 cells (human) (P28336 whole entry): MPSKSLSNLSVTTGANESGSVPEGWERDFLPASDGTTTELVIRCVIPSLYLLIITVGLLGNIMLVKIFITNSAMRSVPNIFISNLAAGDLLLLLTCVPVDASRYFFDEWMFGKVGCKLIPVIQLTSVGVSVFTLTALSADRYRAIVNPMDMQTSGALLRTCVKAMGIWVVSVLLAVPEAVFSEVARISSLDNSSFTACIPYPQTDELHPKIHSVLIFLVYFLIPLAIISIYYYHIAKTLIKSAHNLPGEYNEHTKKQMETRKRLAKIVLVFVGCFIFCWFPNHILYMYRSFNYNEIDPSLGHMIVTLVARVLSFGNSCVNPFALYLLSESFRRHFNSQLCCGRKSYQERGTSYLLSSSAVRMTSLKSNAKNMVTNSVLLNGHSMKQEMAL

Turning to `CC1(C)C[C@@H](CN2CCC(F)(CNC(=O)c3cc(Cl)cc(Cl)c3)CC2)CCO1` [TTA-P2], the “effect on Nmb-induced mechanical hypersensitivity” value in assay [1] is recorded as “significantly attenuated mechanical hypersensitivity”.

For the compound Neuromedin B (peptide), the increase of Cav3.2 channel currents in HEK293 cells co-expressing human NmbR and Cav3.2, whole-cell patch clamp, dose-response of Nmb, EC50 in assay [2] was found to be 47.6 nM. With `CS(=O)(=O)c1ccc(C2=C(c3ccccc3)C(=O)OC2)cc1` [rofecoxib], the CFA-induced mechanical allodynia result in assay [3] was “reversed; also recorded: reduced the mechanical allodynia”.
